In patent US9486506B2 (Novo Nordisk A/S, priority 2011, dated 2016):
Numbered stars: 1 amine (or outer) side, 2 acyl side, 3 side chain; on linkers, the order of the positions; unused ones are H or OH. Side chains are listed from the residue outwards. Peptide text beside a SMILES is read from it. * marks the point of attachment. X1 = O=C(CCCCCCCCCCCCCCCc1nnn[nH]1)NS(=O)(=O)CCCC(=O)*; C18 diacid = O=C(O)CCCCCCCCCCCCCCCCC(=O)*; C16 diacid = O=C(O)CCCCCCCCCCCCCCC(=O)*; γGlu = O=C(O)[C@H](CCC(=O)[*:2])N[*:1]; AEEA = NCCOCCOCC(=O)O

Key:
glucagon receptor = target: T1, glucagon receptor (Homo sapiens, UniProt P47871); assay: Assay (I) Glucagon activity (cAMP biosensor, FLIPR); assay type: cell-based
T1 construct: expressed in transfected cells

[1] = Assay (X) Chemical stability assessment by RP-UPLC; assay type: physicochemical; details: pH 8.15, 14 days at 37° C. vs 5° C., 333 μM

T1 sequence (P47871 26-477): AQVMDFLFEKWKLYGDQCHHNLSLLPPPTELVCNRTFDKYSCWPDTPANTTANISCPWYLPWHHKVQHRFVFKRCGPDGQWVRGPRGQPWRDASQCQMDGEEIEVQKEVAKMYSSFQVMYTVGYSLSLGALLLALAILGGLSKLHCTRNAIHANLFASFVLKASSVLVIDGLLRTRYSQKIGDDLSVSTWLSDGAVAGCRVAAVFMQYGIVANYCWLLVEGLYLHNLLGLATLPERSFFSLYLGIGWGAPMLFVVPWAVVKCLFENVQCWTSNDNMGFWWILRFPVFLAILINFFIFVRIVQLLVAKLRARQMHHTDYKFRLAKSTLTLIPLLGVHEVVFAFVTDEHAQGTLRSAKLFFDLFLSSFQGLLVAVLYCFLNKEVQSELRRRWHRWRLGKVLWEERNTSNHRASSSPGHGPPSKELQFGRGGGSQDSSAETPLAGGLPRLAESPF

Row | Structure (SMILES) | EC50 (glucagon receptor) [nM] | Chemical stability [Purity loss/14 days 37 C.] [1] [%]
1 | CC(C)C[C@H](NC(=O)[C@H](Cc1ccc(O)cc1)NC(=O)[C@H](CCCCN)NC(=O)[C@H](CO)NC(=O)[C@H](Cc1ccc(O)cc1)NC(=O)[C@H](CC(=O)O)NC(=O)[C@H](CO)NC(=O)[C@@H](NC(=O)[C@H](Cc1ccccc1)NC(=O)[C@@H](NC(=O)CNC(=O)[C@H](CCC(N)=O)NC(=O)[C@H](CO)NC(=O)[C@@H](N)Cc1c[nH]cn1)[C@@H](C)O)[C@@H](C)O)C(=O)N[C@@H](CCC(=O)O)C(=O)N[C@@H](CO)C(=O)N[C@@H](CCCNC(=N)N)C(=O)N[C@@H](CCCNC(=N)N)C(=O)N[C@@H](C)C(=O)N[C@@H](CCC(N)=O)C(=O)N[C@@H](CC(=O)O)C(=O)N[C@@H](Cc1ccccc1)C(=O)N[C@H](C(=O)N[C@@H](CCCCNC(=O)CC[C@H](NC(=O)CC[C@H](NC(=O)COCCOCCNC(=O)COCCOCCNC(=O)CC[C@H](NC(=O)CCCCCCCCCCCCCCC(=O)O)C(=O)O)C(=O)O)C(=O)O)C(=O)N[C@@H](Cc1c[nH]c2ccccc12)C(=O)N[C@@H](CC(C)C)C(=O)N[C@@H](CC(C)C)C(=O)N[C@@H](CO)C(=O)N[C@H](C(=O)O)[C@@H](C)O)C(C)C [Example 69, N^ε24-[(4S)-4-carboxy-4-[[(4S)-4-carboxy-4-[[2-[2-[2-[[2-[2-[2-[[(4S)-4-carboxy-4-(15-carboxypentadecanoylamino)butanoyl]amino]ethoxy]ethoxy]acetyl]amino]ethoxy]ethoxy]acetyl]amino]butanoyl]amino]butanoyl]-[Glu15,Lys24,Leu27,Ser28]-Glucagon] | 0.071 | 8.2
2 | CC(C)C[C@H](NC(=O)[C@H](Cc1c[nH]c2ccccc12)NC(=O)[C@H](CCCCNC(=O)CC[C@H](NC(=O)CC[C@H](NC(=O)COCCOCCNC(=O)COCCOCCNC(=O)CC[C@H](NC(=O)CCCCCCCCCCCCCCC(=O)O)C(=O)O)C(=O)O)C(=O)O)NC(=O)[C@@H](NC(=O)[C@H](Cc1ccccc1)NC(=O)[C@H](CC(=O)O)NC(=O)[C@H](CCC(N)=O)NC(=O)[C@H](C)NC(=O)[C@H](CCCNC(=N)N)NC(=O)[C@H](CCCNC(=N)N)NC(=O)[C@@H](NC(=O)[C@H](CC(=O)O)NC(=O)[C@H](CC(C)C)NC(=O)[C@H](Cc1ccc(O)cc1)NC(=O)[C@H](CCCCN)NC(=O)[C@H](CO)NC(=O)[C@H](Cc1ccc(O)cc1)NC(=O)[C@H](CC(=O)O)NC(=O)[C@H](CO)NC(=O)[C@@H](NC(=O)[C@H](Cc1ccccc1)NC(=O)[C@@H](NC(=O)CNC(=O)[C@H](CCC(N)=O)NC(=O)[C@H](CO)NC(=O)[C@@H](N)Cc1c[nH]cn1)[C@@H](C)O)[C@@H](C)O)C(C)C)C(C)C)C(=O)N[C@@H](CC(C)C)C(=O)N[C@@H](CO)C(=O)N[C@H](C(=O)O)[C@@H](C)O [Example 95, N^ε24-[(4S)-4-carboxy-4-[[(4S)-4-carboxy-4-[[2-[2-[2-[[2-[2-[2-[[(4S)-4-carboxy-4-(15-carboxypentadecanoylamino)butanoyl]amino]ethoxy]ethoxy]acetyl]amino]ethoxy]ethoxy]acetyl]amino]butanoyl]amino]butanoyl]-[Val16,Lys24,Leu27,Ser28]-Glucagon] (H-HSQGTFTSDYSKYLDVRRAQDFVK([γGlu-γGlu-AEEA-AEEA-γGlu-C16 diacid])WLLST-OH; N-terminus and C-terminus assumed) | 0.009 | 5.1
3 | CC(C)C[C@H](NC(=O)[C@H](Cc1ccc(O)cc1)NC(=O)[C@H](CCCCN)NC(=O)[C@H](CO)NC(=O)[C@H](Cc1ccc(O)cc1)NC(=O)[C@H](CC(=O)O)NC(=O)[C@H](CO)NC(=O)[C@@H](NC(=O)[C@H](Cc1ccccc1)NC(=O)[C@@H](NC(=O)CNC(=O)[C@H](CCC(N)=O)NC(=O)[C@H](CO)NC(=O)[C@@H](N)Cc1c[nH]cn1)[C@@H](C)O)[C@@H](C)O)C(=O)N[C@@H](CCC(=O)O)C(=O)N[C@@H](CO)C(=O)N[C@@H](CCCNC(=N)N)C(=O)N[C@@H](CCCNC(=N)N)C(=O)N[C@@H](C)C(=O)N[C@@H](CCC(N)=O)C(=O)N[C@@H](CC(=O)O)C(=O)N[C@@H](Cc1ccccc1)C(=O)N[C@H](C(=O)N[C@@H](CCCCNC(=O)CC[C@H](NC(=O)CC[C@H](NC(=O)COCCOCCNC(=O)CC[C@H](NC(=O)CCCS(=O)(=O)NC(=O)CCCCCCCCCCCCCCCc1nnn[nH]1)C(=O)O)C(=O)O)C(=O)O)C(=O)N[C@@H](Cc1c[nH]c2ccccc12)C(=O)N[C@@H](CC(C)C)C(=O)N[C@@H](CC(C)C)C(=O)N[C@@H](CO)C(=O)N[C@H](C(=O)O)[C@@H](C)O)C(C)C [Example 65, N^ε24-[(4S)-4-carboxy-4-[[(4S)-4-carboxy-4-[[2-[2-[2-[[(4S)-4-carboxy-4-[4-[16-(1H-tetrazol-5-yl)hexadecanoylsulfarnoyl]butanoylamino]butanoyl]amino]ethoxy]ethoxy]acetyl]amino]butanoyl]amino]butanoyl]-[Glu15,Lys24,Leu27,Ser28]-Glucagon] (H-HSQGTFTSDYSKYLESRRAQDFVK([γGlu-γGlu-AEEA-γGlu-X1])WLLST-OH; N-terminus and C-terminus assumed) | 0.362 | 7.8
4 | CC(C)C[C@H](NC(=O)[C@H](Cc1c[nH]c2ccccc12)NC(=O)[C@H](CCCCNC(=O)COCCOCCNC(=O)CC[C@H](NC(=O)CC[C@H](NC(=O)COCCOCCNC(=O)CC[C@H](NC(=O)CCCCCCCCCCCCCCCCC(=O)O)C(=O)O)C(=O)O)C(=O)O)NC(=O)[C@@H](NC(=O)[C@H](Cc1ccccc1)NC(=O)[C@H](CC(=O)O)NC(=O)[C@H](CCC(N)=O)NC(=O)[C@H](C)NC(=O)[C@H](CCCNC(=N)N)NC(=O)[C@H](CCCNC(=N)N)NC(=O)[C@@H](NC(=O)[C@H](CC(=O)O)NC(=O)[C@H](CC(C)C)NC(=O)[C@H](Cc1ccc(O)cc1)NC(=O)[C@H](CCCCN)NC(=O)[C@H](CO)NC(=O)[C@H](Cc1ccc(O)cc1)NC(=O)[C@H](CC(=O)O)NC(=O)[C@H](CO)NC(=O)[C@@H](NC(=O)[C@H](Cc1ccccc1)NC(=O)[C@@H](NC(=O)CNC(=O)[C@H](CCC(N)=O)NC(=O)[C@H](CO)NC(=O)[C@@H](N)Cc1c[nH]cn1)[C@@H](C)O)[C@@H](C)O)[C@@H](C)O)C(C)C)C(=O)N[C@@H](CC(C)C)C(=O)N[C@@H](CO)C(=O)N[C@H](C(=O)O)[C@@H](C)O [Example 40, N^ε24-[2-[2-[2-[[(4S)-4-carboxy-4-[[(4S)-4-carboxy-4-[[2-[2-[2-[[(4S)-4-carboxy-4-(17-carboxyheptadecanoylamino)butanoyl]amino]ethoxy]ethoxy]acetyl]amino]butanoyl]amino]butanoyl]amino]ethoxy]ethoxy]acetyl]-[Thr16,Lys24,Leu27,Ser28]-Glucagon] | 0.078 | 7.5
5 | CC[C@H](C)[C@H](NC(=O)[C@H](CC(=O)O)NC(=O)[C@H](CC(C)C)NC(=O)[C@H](Cc1ccc(O)cc1)NC(=O)[C@H](CCCNC(=N)N)NC(=O)[C@H](CO)NC(=O)[C@H](Cc1ccc(O)cc1)NC(=O)[C@H](CC(=O)O)NC(=O)[C@H](CO)NC(=O)[C@@H](NC(=O)[C@H](Cc1ccccc1)NC(=O)[C@@H](NC(=O)CNC(=O)[C@H](CCC(N)=O)NC(=O)[C@H](CO)NC(=O)[C@@H](N)Cc1c[nH]cn1)[C@@H](C)O)[C@@H](C)O)C(=O)N[C@@H](CCCNC(=N)N)C(=O)N[C@@H](CCCNC(=N)N)C(=O)N[C@@H](C)C(=O)N[C@@H](CCC(N)=O)C(=O)N[C@@H](CCC(=O)O)C(=O)N[C@@H](Cc1ccccc1)C(=O)N[C@H](C(=O)N[C@@H](CCCCNC(=O)CC[C@H](NC(=O)CC[C@H](NC(=O)COCCOCCNC(=O)COCCOCCNC(=O)CC[C@H](NC(=O)CCCCCCCCCCCCCCCCC(=O)O)C(=O)O)C(=O)O)C(=O)O)C(=O)N[C@@H](Cc1c[nH]c2ccccc12)C(=O)N[C@@H](CC(C)C)C(=O)N[C@@H](CCC(=O)O)C(=O)N[C@@H](CO)C(=O)N[C@H](C(=O)O)[C@@H](C)O)C(C)C [Example 53, N^ε24-[(4S)-4-carboxy-4-[[(4S)-4-carboxy-4-[[2-[2-[2-[[2-[2-[2-[[(4S)-4-carboxy-4-(17-carboxyheptadecanoylamino)butanoyl]amino]ethoxy]ethoxy]acetyl]amino]ethoxy]ethoxy]acetyl]amino]butanoyl]amino]butanoyl]-[Arg12,Ile16,Glu21,Lys24,Glu27,Ser28]-Glucagon] (H-HSQGTFTSDYSRYLDIRRAQEFVK([γGlu-γGlu-AEEA-AEEA-γGlu-C18 diacid])WLEST-OH) | 0.099 | 2.5
6 | CC(C)C[C@H](NC(=O)[C@H](CC(C)C)NC(=O)[C@H](Cc1c[nH]c2ccccc12)NC(=O)[C@H](CCCCNC(=O)CC[C@H](NC(=O)CC[C@H](NC(=O)COCCOCCNC(=O)COCCOCCNC(=O)CC[C@H](NC(=O)CCCCCCCCCCCCCCC(=O)O)C(=O)O)C(=O)O)C(=O)O)NC(=O)[C@@H](NC(=O)[C@H](Cc1ccccc1)NC(=O)[C@H](CC(=O)O)NC(=O)[C@H](CCC(N)=O)NC(=O)[C@H](C)NC(=O)[C@H](CCCNC(=N)N)NC(=O)[C@H](CCCNC(=N)N)NC(=O)[C@H](CC(C)C)NC(=O)[C@H](CC(=O)O)NC(=O)[C@H](CC(C)C)NC(=O)[C@H](Cc1ccc(O)cc1)NC(=O)[C@H](CCCNC(=N)N)NC(=O)[C@H](CO)NC(=O)[C@H](Cc1ccc(O)cc1)NC(=O)[C@H](CC(=O)O)NC(=O)[C@H](CO)NC(=O)[C@@H](NC(=O)[C@H](Cc1ccccc1)NC(=O)[C@@H](NC(=O)CNC(=O)[C@H](CCC(N)=O)NC(=O)[C@H](CO)NC(=O)[C@@H](N)Cc1c[nH]cn1)[C@@H](C)O)[C@@H](C)O)C(C)C)C(=O)NCC(=O)N[C@H](C(=O)O)[C@@H](C)O [Example 90, N^ε24-[(4S)-4-carboxy-4-[[(4S)-4-carboxy-4-[[2-[2-[2-[[2-[2-[2-[[(4S)-4-carboxy-4-(15-carboxypentadecanoylamino)butanoyl]amino]ethoxy]ethoxy]acetyl]amino]ethoxy]ethoxy]acetyl]amino]butanoyl]amino]butanoyl]-[Arg12,Leu16,Lys24,Leu27,Gly28]-Glucagon] (H-HSQGTFTSDYSRYLDLRRAQDFVK([γGlu-γGlu-AEEA-AEEA-γGlu-C16 diacid])WLLGT-OH) | 0.09 | 5.4
